Data on 28 compounds can be found in patent US9409892B2, “4-hydroxy-isoquinoline compounds as HIF hydroxylase inhibitors” (FIBROGEN, INC., priority 2012, dated 2016).

Usually IC50 stands for the concentration at which inhibition is half-maximal.

Experiment [1] has as its target PHD1 (EGLN2) (Homo sapiens (Human), UniProt Q96KS0). Nature of the experiment: HIF-PH assay (14CO2 capture), PHD1 enzyme inhibition. As to conditions: Table 1; for IC50: individual measurement, read-out: IC50 (μM) PHD1; for PHD2/PHD1: ratio of the IC50 of the compound for each enzyme. It is filed as biochemical.
Experiment [2] deals with PHD2 (EGLN1) (Homo sapiens (Human), UniProt Q9GZT9). In words: HIF-PH assay (14CO2 capture), PHD2 enzyme inhibition. As to conditions: Table 1; individual measurement; read-out: IC50 (μM) PHD2. The class given is biochemical.
PHD2 (EGLN1), sequence (Q9GZT9 whole entry): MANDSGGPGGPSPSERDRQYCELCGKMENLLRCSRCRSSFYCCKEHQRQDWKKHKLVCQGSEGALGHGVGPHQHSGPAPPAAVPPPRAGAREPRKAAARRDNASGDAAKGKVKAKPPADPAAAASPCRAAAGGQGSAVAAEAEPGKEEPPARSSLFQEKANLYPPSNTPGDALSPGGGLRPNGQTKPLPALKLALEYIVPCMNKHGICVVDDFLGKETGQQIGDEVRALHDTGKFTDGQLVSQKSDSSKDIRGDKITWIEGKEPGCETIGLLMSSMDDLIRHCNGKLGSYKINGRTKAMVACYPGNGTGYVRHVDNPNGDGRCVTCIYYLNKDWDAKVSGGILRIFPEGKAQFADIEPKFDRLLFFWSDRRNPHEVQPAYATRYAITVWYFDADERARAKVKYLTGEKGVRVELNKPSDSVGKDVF

PHD1 (EGLN2), sequence (Q96KS0 whole entry): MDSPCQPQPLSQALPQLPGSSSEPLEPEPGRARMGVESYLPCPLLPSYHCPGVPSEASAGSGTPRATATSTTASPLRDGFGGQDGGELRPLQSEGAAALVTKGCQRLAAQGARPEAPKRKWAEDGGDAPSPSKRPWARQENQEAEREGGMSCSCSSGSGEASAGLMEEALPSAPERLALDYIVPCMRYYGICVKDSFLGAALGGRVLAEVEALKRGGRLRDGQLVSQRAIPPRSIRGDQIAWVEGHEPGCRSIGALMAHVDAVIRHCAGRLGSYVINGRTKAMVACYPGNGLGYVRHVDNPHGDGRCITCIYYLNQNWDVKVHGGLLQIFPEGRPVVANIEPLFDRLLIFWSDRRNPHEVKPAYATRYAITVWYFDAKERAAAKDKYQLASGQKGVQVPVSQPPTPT

As to `O=C(O)CCNC(=O)c1ncc2cc(NC(=O)Nc3ccc(F)cc3)ccc2c1O` [Compound 141, 3-({7-[3-(4-Fluoro-phenyl)-ureido]-4-hydroxy-isoquinoline-3-carbonyl}-amino)-propionic acid], the half-maximal inhibitory concentration (IC50) in experiment [1] was 3 µM; in experiment [2] it was 37.8 µM. In experiment [1], the PHD2/PHD1 was found to be 13.
Regarding `Cc1ccccc1Oc1ccc2c(C#N)nc(C(=O)NCC(C)(C)C(=O)O)c(O)c2c1` [Compound 155, 3-[(1-Cyano-4-hydroxy-6-o-tolyloxy-isoquinoline-3-carbonyl)-amino]-2,2-dimethyl-propionic acid], in experiment [1], the IC50 stood at 5.25 µM and the PHD2/PHD1 was 8. Besides, the IC50 in experiment [2] was found to be 42.1 µM.
`CC(C)(CNC(=O)c1nc(C#N)c2cc(Oc3cccnc3)ccc2c1O)C(=O)O` [Compound 27, 3{-[1-Cyano-4-hydroxy-7-(pyridin-3-yloxy)-isoquinoline-3-carbonyl]-amino}-2,2-dimethyl-propionic acid]: the values for the half-inhibitory concentration (IC50) in experiment [1] and in experiment [2] were 3.27 µM and 33.3 µM, respectively. The PHD2/PHD1 in experiment [1] was determined as 10.
Turning to `CC(C)(CNC(=O)c1nc(C#N)c2cc(Oc3cccc4ccccc34)ccc2c1O)C(=O)O` [Compound 43, 3-(1-Cyano-4-hydroxy-7-(naphthalen-1-yloxy)isoquinoline-3-carboxamido)-2,2-dimethylpropanoic acid], in experiment [1], the IC50 came to 0.22 µM and the PHD2/PHD1 stood at 8. The 50% inhibitory concentration (IC50) in experiment [2] came to 1.73 µM.
In the case of `CC(C)(CNC(=O)c1nc(C#N)c2cc(Cc3ccccc3)ccc2c1O)C(=O)O` [Compound 164, 3-[(7-Benzyl-1-cyano-4-hydroxy-isoquinoline-3-carbonyl)-amino]-2,2-dimethyl-propionic acid], the IC50 in experiment [1] came out at 1.35 µM; in experiment [2] it was 18.6 µM. Besides, the PHD2/PHD1 in experiment [1] was 14.
`CCNC(=O)N[C@H](CCNC(=O)c1nc(C#N)c2cc(Oc3ccccc3)ccc2c1O)C(=O)O` [Compound 52, (R)-4-(1-Cyano-4-hydroxy-7-phenoxyisoquinoline-3-carboxamido)-2-(3-ethylureido)butanoic acid]: the IC50 in experiment [1] is 1.33 µM; in experiment [2] it was 24.7 µM. In experiment [1], the PHD2/PHD1 turned out to be 18.6.
In the case of `N#Cc1nc(C(=O)NCC[C@H](O)C(=O)O)c(O)c2ccc(Oc3ccccc3)cc12` [Compound 83, 4-[(1-Cyano-4-hydroxy-7-phenoxy-isoquinoline-3-carbonyl)-amino]-2-(S)-hydroxy-butyric acid], the IC50 in experiment [1] worked out at 0.24 µM; in experiment [2] it was 2.75 µM. Besides, the PHD2/PHD1 in experiment [1] was 12.
`CC(C)(CCNC(=O)c1nc(C#N)c2cc(Oc3ccccc3)ccc2c1O)C(=O)O` [Compound 84, 4-[(1-Cyano-4-hydroxy-7-phenoxy-isoquinoline-3-carbonyl)-amino]-2,2-dimethyl-butyric acid]: the IC50 in experiment [1] turned out to be 0.34 µM; in experiment [2], 2.11 µM. Besides, the PHD2/PHD1 in experiment [1] is 6.
Turning to `CC(C)(CC(=O)O)NC(=O)c1nc(C#N)c2cc(Oc3ccc(F)cc3)ccc2c1O` [Compound 102, 3{-[1-Cyano-7-(4-fluoro-phenoxy)-4-hydroxy-isoquinoline-3-carbonyl]-amino}-3-methyl-butyric acid], in experiment [1], the IC50 came to 0.53 µM and the PHD2/PHD1 was found to be 16. The half-maximal inhibitory concentration (IC50) in experiment [2] is 8.5 µM.
Taken in the same sequence, the figures for `COc1ccc(Oc2ccc3c(O)c(C(=O)NCC(C)(C)C(=O)O)ncc3c2)cc1` [Compound 104, 3-{[4-Hydroxy-7-(4-methoxy-phenoxy)-isoquinoline-3-carbonyl]-amino}-2,2-dimethyl-propionic acid] were 3.3 µM, 6 and 19.5 µM.
On the same counts, the results for `CC(C)(CNC(=O)c1c(O)c2ccc(Oc3ccccc3)cc2c(C#N)[n+]1[O-])C(=O)O` [Compound 157, 3-(2-Carboxy-2-methylpropylcarbamoyl)-1-cyano-4-hydroxy-7-phenoxyisoquinoline 2-oxide] are 13.6 µM, 15 and 200 µM.
As to `COc1ccc(CNc2ccc3c(O)c(C(=O)NCCCCC(=O)O)ncc3c2)cc1` [Compound 125, 5-{[4-Hydroxy-7-(4-methoxy-benzylamino)-isoquinoline-3-carbonyl]-amino}-pentanoic acid], in experiment [1], the IC50 was found to be 7.92 µM and the PHD2/PHD1 is 20. The 50% inhibitory concentration (IC50) in experiment [2] was 158 µM.
Consider `COc1ccc(CNc2ccc3c(O)c(C(=O)NCC(C)(C)C(=O)O)ncc3c2)cc1` [Compound 126, 3-{[4-Hydroxy-7-(4-methoxy-benzylamino)-isoquinoline-3-carbonyl]-amino}-2,2-dimethyl-propionic acid], for which the results for the half-inhibitory concentration (IC50) in experiment [1] and in experiment [2] were 34 µM and 200 µM, respectively. In addition, in experiment [1], the PHD2/PHD1 is 6.
With `COc1ccc(Oc2ccc3c(O)c(C(=O)NC[C@H](O)C(=O)O)ncc3c2)cc1` [Compound 103, 2-(S)-Hydroxy-3-{[4-hydroxy-7-(4-methoxy-phenoxy)-isoquinoline-3-carbonyl]-amino}-propionic acid], the IC50 turned out to be 0.79 µM in experiment [1] and 4.78 µM in experiment [2]. Further, the PHD2/PHD1 in experiment [1] came to 6.
In the case of `CC(C)(CCCNC(=O)c1nc(C#N)c2cc(Oc3ccccc3)ccc2c1O)C(=O)O` [Compound 95, 5-[(1-Cyano-4-hydroxy-7-phenoxy-isoquinoline-3-carbonyl)-amino]-2,2-dimethyl-pentanoic acid], the values for the IC50 in experiment [1] and in experiment [2] were 0.74 µM and 3.5 µM, respectively. For the same compound, the PHD2/PHD1 in experiment [1] stood at 5.
In the case of `O=C(O)CCNC(=O)c1nc(-c2ccccc2)c2cc(Oc3ccccc3)ccc2c1O` [Compound 144, 3-[(4-Hydroxy-7-phenoxy-1-phenyl-isoquinoline-3-carbonyl)-amino]-propionic acid], in experiment [1], the 50% inhibitory concentration (IC50) came out at 6.4 µM and the PHD2/PHD1 was determined as 5. Further, in experiment [2], the IC50 is 31.7 µM.
With `Cn1nc(C(F)(F)F)cc1-c1nc(C(=O)NCC(C)(C)C(=O)O)c(O)c2ccc(Oc3ccccc3)cc12` [Compound 151, 3-{[4-Hydroxy-1-(2-methyl-5-trilluoromethyl-2H-pyrazol-3-yl)-7-phenoxy-isoquinoline-3-carbonyl]-amino}-2,2-dimethyl-propionic acid], in experiment [1], the IC50 was determined as 12.8 µM and the PHD2/PHD1 was 9. Further, the concentration for half-maximal inhibition (IC50) in experiment [2] was found to be 111 µM.
In the case of `CCC(CNC(=O)c1nc(C#N)c2cc(Oc3ccccc3)ccc2c1O)C(=O)O` (stereo not drawn) [Compound 57, 2-((1-Cyano-4-hydroxy-7-phenoxyisoquinoline-3-carboxamido)methyl)butanoic acid], in experiment [1], the half-inhibitory concentration (IC50) worked out at 0.54 µM and the PHD2/PHD1 is reported as 9. Further, in experiment [2], the IC50 turned out to be 5.1 µM.
For `O=C(O)CCCNC(=O)c1ncc2cc(NC(=O)NCc3ccccc3)ccc2c1O` [Compound 134, 4-{[7-(3-Benzyl-ureido)-4-hydroxy-isoquinoline-3-carbonyl]-amino}-butyric acid], in experiment [1], the IC50 is 2.15 µM and the PHD2/PHD1 turned out to be 6. The IC50 in experiment [2] was 13.4 µM.
As to `C[C@H](NC(=O)c1nc(C#N)c2cc(Oc3ccccc3)ccc2c1O)[C@@H](C)C(=O)O` [Compound 72, (2R,3S)-3-[(1-Cyano-4-hydroxy-7-phenoxy-isoquinoline-3-carbonyl)-amino]-2-methyl-butyric acid], in experiment [1], the concentration for half-maximal inhibition (IC50) came out at 11.8 µM and the PHD2/PHD1 was determined as 17. In addition, in experiment [2], the half-inhibitory concentration (IC50) is 200 µM.
Turning to `O=C(O)CCNC(=O)c1ncc2cc(Oc3ccccn3)ccc2c1O` [Compound 25, 3-{[4-Hydroxy-7-(pyridin-2-yloxy)-isoquinoline-3-carbonyl]-amino}-propionic acid], in experiment [1], the half-inhibitory concentration (IC50) worked out at 4.57 µM and the PHD2/PHD1 came out at 10. Moreover, in experiment [2], the IC50 was 44.6 µM.
With `CC(C)(CNC(=O)c1nc(C#N)c2cc(Oc3ccc(F)cc3Cl)ccc2c1O)C(=O)O` [Compound 99, 3-{[7-(2-Chloro-4-fluoro-phenoxy)-1-cyano-4-hydroxy-isoquinoline-3-carbonyl]-amino}-2,2-dimethyl-propionic acid], in experiment [1], the IC50 stood at 0.29 µM and the PHD2/PHD1 is on record as 19. The half-inhibitory concentration (IC50) in experiment [2] is 5.55 µM.
As to `O=C(O)CCCNC(=O)c1ncc2cc(Sc3ccccc3)ccc2c1O` [Compound 115, 4-[(4-Hydroxy-7-phenylsulfanyl-isoquinoline-3-carbonyl)-amino]-butyric acid], the IC50 was found to be 1.41 µM in experiment [1] and 14.8 µM in experiment [2]. Besides, the PHD2/PHD1 in experiment [1] came out at 11.
For the compound `O=C(NCC(C(=O)O)C1CC1)c1ncc2cc(Oc3ccccc3)ccc2c1O` (stereo not drawn) [Compound 167, 2-Cyclopropyl-3-[(4-hydroxy-7-phenoxy-isoquinoline-3-carbonyl)-amino]-propionic acid], in experiment [1], the IC50 was 9.57 µM and the PHD2/PHD1 is given as 10. The IC50 in experiment [2] is 100 µM.
As to `O=C(O)CCNC(=O)c1ncc2ccc(Oc3ccccc3)cc2c1O` [Compound 112, 3-[(4-Hydroxy-6-phenoxy-isoquinoline-3-carbonyl)-amino]-propionic acid], in experiment [1], the IC50 came out at 23.7 µM and the PHD2/PHD1 turned out to be 8. The IC50 in experiment [2] was found to be 200 µM.
On the same counts, the results for `N#Cc1nc(C(=O)NCCCCC(=O)O)c(O)c2cc(Oc3ccccc3)ccc12` [Compound 128, 5-[(1-Cyano-4-hydroxy-6-phenoxy-isoquinoline-3-carbonyl)-amino]-pentanoic acid] are 8.99 µM, 7 and 65.2 µM.
On the same counts, the results for `Cc1cccc(C)c1Oc1ccc2c(C#N)nc(C(=O)NCCC(=O)O)c(O)c2c1` [Compound 109, 3{-[1-Cyano-6-(2,6-dimethyl-phenoxy)-4-hydroxy-isoquinoline-3-carbonyl]-amino}-propionic acid] are 6.4 µM, 5 and 30.4 µM.
As for `COc1ccc(Oc2ccc3c(O)c(C(=O)NCCCCC(=O)O)ncc3c2)cc1` [Compound 105, 5-{[4-Hydroxy-7-(4-methoxy-phenoxy)-isoquinoline-3-carbonyl]-amino}-pentanoic acid], the figures for the concentration for half-maximal inhibition (IC50) in experiment [1] and in experiment [2] were 2.3 µM and 13.4 µM, respectively. For the same compound, the PHD2/PHD1 in experiment [1] was 6.
